Molecular target: T1, CnCYP51 (lanosterol 14α-demethylase, CnCYP51-6×His) (Cryptococcus neoformans, UniProt J9VHT4)
T1 construct: gene CNAG_00040; full-length, C-terminal hexahistidine-tagged, codon-optimised, expressed in S. cerevisiae
Test: Type II absorbance difference spectral titration of purified CYP51, Hill fit
Type: binding

T1 sequence (J9VHT4 entry or part of it): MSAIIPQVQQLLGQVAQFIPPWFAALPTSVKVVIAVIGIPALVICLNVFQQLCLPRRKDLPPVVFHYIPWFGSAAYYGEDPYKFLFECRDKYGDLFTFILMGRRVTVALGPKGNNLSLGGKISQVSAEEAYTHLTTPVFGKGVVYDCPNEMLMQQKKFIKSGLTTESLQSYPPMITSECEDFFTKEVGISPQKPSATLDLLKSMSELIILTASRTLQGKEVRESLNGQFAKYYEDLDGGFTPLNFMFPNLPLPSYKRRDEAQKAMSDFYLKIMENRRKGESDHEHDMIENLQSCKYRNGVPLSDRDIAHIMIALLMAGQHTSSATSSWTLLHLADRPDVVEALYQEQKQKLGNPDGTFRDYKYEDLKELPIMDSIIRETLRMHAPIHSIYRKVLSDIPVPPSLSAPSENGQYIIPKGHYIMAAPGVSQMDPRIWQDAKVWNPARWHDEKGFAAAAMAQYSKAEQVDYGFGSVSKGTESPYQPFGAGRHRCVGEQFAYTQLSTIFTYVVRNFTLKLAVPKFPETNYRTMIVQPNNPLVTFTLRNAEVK

CC[C@@H]([C@H](C)O)n1ncn(-c2ccc(N3CCN(c4ccc(OC[C@@H]5CO[C@@](Cn6cncn6)(c6ccc(F)cc6F)C5)cc4)CC3)cc2)c1=O [PCZ, Posaconazole]
Kd: 200 ± 10 nM

C[C@@H](c1ncncc1F)[C@](O)(Cn1cncn1)c1ccc(F)cc1F [VCZ, Voriconazole]
Kd: 390 ± 13 nM

Source: PMC9785471, “Exploring Cryptococcus neoformans CYP51 and Its Cognate Reductase as a Drug Target” (Journal of Fungi, 2022)
